# From patent US12551577B2, “7-ethyl-10-hydroxycamptothecin drug precursor with fluorescence activity, and preparation method and use thereof” (SOOCHOW UNIVERSITY, priority 2021, dated 2026)
# Assay: Solubility in chloroform by weight loss method
# Type: physicochemical
# Details: 2 mg in 300 μL chloroform
# Protocol: The weights of the two centrifuge tubes were recorded on an analytical balance, respectively. […] 300 μL of chloroform was added to the centrifuge tube, shaken, and centrifuged. […] The solubility of different compounds in chloroform was estimated by the weight loss method (where the specific operation includes pipetting the solution, and lyophilizing the remaining solid and weighing).
structure (smiles),measurement,value
"CCc1c2c(nc3ccc(O)cc13)-c1cc3c(c(=O)n1C2)COC(=O)[C@]3(O)CC [SN38, 7-Ethyl-10-hydroxycamptothecin]",solubility in chloroform,hardly soluble
